Non-standard residues stand in square brackets, D forms with d. Residues, ends and D or L forms follow the SMILES beside them.
How the values were obtained:
[1] = test system: MCF-10A cells on HMEC-1 cells; assay: Adhesion of non-tumorigenic MCF-10A cells to endothelial monolayer under static conditions; assay type: cell-based, human; conditions: P4D 500 μM; TNF/IFN-treated HMEC-1
Description: The peptides were synthesized and purified by LifeTein, LLC (Somerset, N.J., USA) with the purity of not less than 95% using PeptideSyn™ technology that incorporates solid phase fluorenylmethyloxycarbonyl (Fmoc) chemistry. The cells were treated with the peptide P4D for 0, 1, 5, or 24 hours at a concentration of 500 μM. The cells treated with the Scrambled peptide P4D (Scr; 500 μM; 0, 1, 5, or 24 hours incubation time) were used as a negative control. In order to provide the positive control of the junctions tightening for impedance-based measurements of endothelial permeability, the cells were incubated with the potent activator of TJ assembly, forskolin (FSK; BioShop, Burlington, ON, Canada), for 24 hours at a concentration of 10 μM.
Adhesion of human breast cancer (MCF-7, MDA-MB-231) or non-tumorigenic (MCF-10A) human breast cells to HMEC-1 cells was performed in 24-well plates. HMEC-1 cells were seeded to the bottom of the fibronectin-coated wells 2 days before the assay to form the monolayer and subjected to a suitable treatment. Breast cancer or non-tumorigenic cells were starved overnight and on the day of the assay were labeled with CellTracker Green CMFDA Dye for 30 minutes. […] The adherent cells were lysed by 2% SDS and the fluorescence was measured using the Wallac 1420 VICTOR2 Multilabel Counter (PerkinElmer) at 492 nm of excitation and 517 nm of emission wavelengths.

[2] = test system: JAM-A; assay: Western blot of JAM-A protein in HMEC-1 cells; assay type: cell-based, human
Description: The cells were lysed with lysis buffer (1% Triton X-100 and 0.1% SDS in PBS) supplemented with Halt Protease Inhibitor Cocktail (Thermo Scientific, Waltham, Mass., USA). For the equalization between the samples before the semi-quantitative analyses the protein content of lysates was determined with the BCA Protein Assay Kit according to the manufacturer's protocol (Thermo Scientific). Cell lysate aliquots at a protein content of 50 μg per sample were boiled with 5× concentrated loading buffer (final concentrations: 50 mM Tris-HCl, pH 6.8, 8% glycerol, 2% SDS, 5% β-mercaptoethanol, 0.002% bromophenol blue), separated under reducing conditions on 4-20% gradient SDS-PAGE gels (Bio-Rad) and electroblotted (120 min, 200 mA, 4° C.) onto polyvinylidene difluoride (PVDF) membranes (Bio-Rad). The membranes were washed with Tris-buffered saline (TBS) and blocked for 2 hours with TBS containing 5% nonfat dry milk at room temperature. Then, the membranes were incubated overnight at 4° C. with an appropriate amount of primary antibody diluted in TBS containing 0.05% Tween 20 (TBST). The following primary antibodies were used: monoclonal rabbit anti-JAM-A (Abcam, Cambridge, UK) at a dilution of 1:500 and monoclonal mouse anti-GAPDH (R&D Systems, Minneapolis, Minn., USA) at a dilution of 1:1000. The membranes were washed several times with TBST and incubated for 1 hour at room temperature with the corresponding polyclonal anti-rabbit and anti-mouse HRP-conjugated secondary antibodies (Santa Cruz Biotechnology, Dallas, Tex., USA) at a 1:5000 dilution in TBST. Following the subsequent washes with TBST the membranes were further processed for chemiluminescent detection using Westar TiC ECL Substrate (Cyanagen, Bologna, Italy) and the images were documented by ChemiDoc MP Imager (Bio-Rad).

Row | Compound | adhesion of MCF-10A cells to cytokine-treated endothelium [1] | level of JAM-A protein ([2]; Tβ4 200 nM or TGF-β1 10 ng/mL, 24-hours incubation) | action on JAM-A expression over incubation time ([2]; Tβ4 200 nM, 0, 2, 5, or 12 hours)
1 | CC(C)[C@H](NC(=O)[C@H](CO)NC(=O)[C@H](N)CCCCN)C(=O)N[C@H](C(=O)N[C@H](CCCNC(=N)N)C(=O)N[C@@H](CCC(=O)O)C(=O)N[C@@H](CC(=O)O)C(=O)N[C@H](C(=O)NCC(=O)N[C@H](C(=O)N[C@@H](Cc1ccc(O)cc1)C(=O)N[C@H](C(=O)N[C@@H](CS)C(N)=O)[C@@H](C)O)[C@@H](C)O)[C@@H](C)O)[C@@H](C)O [Peptide P4D, NH2-(dK)-SVT-(dR)-EDTGTYTC-CONH2] (H-[dK]SVT[dR]EDTGTYTC-NH2) | markedly inhibited | – | –
2 | Thymosin β4 (SDKPDMAEIEKFDKSKLKKTETQEKNPLPSKETIEQEKQAGES; not fully specified; Thymosin beta-4; UniProt P62328 2-44, looked up) [Tβ4] | – | evidently reduced the level of JAM-A protein | time-dependent

Source: US10537610B1, “Peptide for inhibition of cancer” (priority 2018, dated 2020)
